Earlier results, collected in patent US11642339B2 (THERAVANCE BIOPHARMA R&D IP, LLC, priority 2017, dated 2023).

What was measured:
[1] = test system: patients with functional dyspepsia; conditions: Japan, placebo 35%; cited from earlier work
[2] = test system: patients on daily therapy; conditions: long-term use; cited from earlier work
[3] = test system: patients with functional dyspepsia; conditions: after 4 weeks of treatment; placebo 12.7%; cited from earlier work

COc1cc(O)c(C(=O)Nc2nc(C(=O)NCCN(C(C)C)C(C)C)cs2)cc1OC [Acotiamide]
patients with symptom improvement [1]: 52%

CCN(CC)CCNC(=O)c1cc(Cl)c(N)cc1OC [metoclopramide]
patients with adverse CNS effects [2]: up to 30%

O=C1[C@@H]2[C@H]3CC[C@H](C3)[C@@H]2C(=O)N1CCCCN1CCN(c2ncccn2)CC1 [tandospirone]
response rate [3]: 31.5%
